Reference: patent publication US9708314B2, “Heterocyclic amide compound” (NISSAN CHEMICAL INDUSTRIES, LTD., priority 2013, dated 2017)

Key:
Assay type in all cases: in vivo
[1] = tested on: Monochoria vaginalis; test: Test Example 2: herbicidal activity, application during weed generation in submerged conditions; settings: Eighteenth Table; application herbicide amount 320 g/ha
From the text: (§1) 5 Herbicidal ratio of 90% or more (almost completely withered) 4 Herbicidal ratio of 70% or more and less than 90% 3 Herbicidal ratio of 40% or more and less than 70% 2 Herbicidal ratio of 20% or more and less than 40% 1 Herbicidal ratio of 5% or more and less than 20% 0 Herbicidal ratio of 5% or less (almost no effect) [Test Example 2] Herbicidal Activity Test by Application During Weed Generation in Submerged Conditions After alluvial soil was placed into 1/10000 are of Wagner pot, water was poured and mixed to form a submerged condition having a water depth of 4 cm. Seeds of Echinochloa oryzacola Vasing., Scirpus juncoides, and Monochoria vaginalis were sowed in a mixed manner in the above pot and the pot was placed in the greenhouse of 25° C. to 30° C. to grow the plants. When Echinochloa oryzacola Vasing., Scirpus juncoides, and Monochoria vaginalis were grown to one leaf stage to two leaf stage, the emulsion agent containing the compound of the present invention prepared in accordance with Formulation Example 2 was diluted with water so as to be a predetermined herbicide amount and the diluted compound was applied to the surface of the water. Three weeks after the herbicide application, effects on each plant were investigated in accordance with the criteria of Test Example 1. A: Echinochloa oryzicola Vasing., B: Scirpus juncoides, C: Monochoria vaginalis, D: Leptochloa chinensis, E: Cyperus difformis, F: Digitaria ciliaris, G: Setaria viridis, H: Echinochloa crus-galli var. crus-galli, I: Avena fatua, J: Alopecurus myosuroides, K: Lolium multiflorum Lam., L: Apera spica-venti., M: Abutilon theophrasti, N: Amaranthus retroflexus, O: Chenopodium album, P: Stellaria media, Q: Galium spurium, R: Veronica persica, a: transplanted Oryza sativa, b: directly sowed Oryza sativa, c: Zea mays, d: Glycine max, e: Triticum aestivum, f: Beta vulgaris ssp. vulgaris, and g: Brassica campestris L. The application herbicide amount (g/ha) means an amount that a concentration is adjusted so that, when an application amount is converted into per hectare (1 ha), the herbicide is applied by the number of grams (g) of the described value.

[2] = tested on: Echinochloa oryzacola Vasing.; test: as above; settings: Eighteenth Table; application herbicide amount 320 g/ha
From the text: as §1

[3] = tested on: Scirpus juncoides; test: as above; settings: Eighteenth Table; application herbicide amount 320 g/ha
From the text: as §1

[4] = tested on: directly sowed Oryza sativa; test: Test Example 4: effect on crop by application to foliage (diluvial soil, plastic box); settings: for d (directly sowed Oryza sativa) effect on crop: application to foliage, application herbicide amount 320 g/ha
Method in brief: (§2)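 Greenhouse plants (25° C. to 30° C., 14 d, diluvial soil) receive a foliar spray of water-diluted emulsifiable formulation at defined g/ha. Grading after 3 weeks uses a six-step herbicidal-ratio scale, with 4 covering 70% to <90% and 1 covering 5% to <20%.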

[5] = tested on: Glycine max; test: as above; settings: for c (Glycine max) effect on crop: application to foliage, application herbicide amount 320 g/ha
Method in brief: as §2

[6] = tested on: Zea mays; test: as above; settings: for b (Zea mays) effect on crop: application to foliage, application herbicide amount 320 g/ha
Method in brief: as §2

[7] = tested on: Triticum aestivum; test: as above; settings: for e (Triticum aestivum) effect on crop: application to foliage, application herbicide amount 320 g/ha
Method in brief: as §2

[8] = tested on: Beta vulgaris ssp. vulgaris; test: as above; settings: for f (Beta vulgaris ssp. vulgaris) effect on crop: application to foliage, application herbicide amount 320 g/ha
Method in brief: as §2

[9] = tested on: Brassica campestris L.; test: as above; settings: for g (Brassica campestris L.) effect on crop: application to foliage, application herbicide amount 320 g/ha
Method in brief: as §2

[10] = Application herbicide amount 320 g/ha, effect on crop

SMILES	C (Monochoria vaginalis) herbicidal ratio grade [1]	A (Echinochloa oryzicola Vasing.) herbicidal ratio grade [2]	B (Scirpus juncoides) herbicidal ratio grade [3]	d (directly sowed Oryza sativa) effect on crop [4]	c (Glycine max) effect on crop [5]	b (Zea mays) effect on crop [6]	e (Triticum aestivum) effect on crop [7]	f (Beta vulgaris ssp. vulgaris) effect on crop [8]	g (Brassica campestris L.) effect on crop [9]	d [4, 10]	c [5, 10]	b [6, 10]	e [7, 10]	f [8, 10]	g [9, 10]
CSCc1nnc2c(C(=O)Nc3nnc(C)o3)ccc(C(F)(F)F)n12 [1-030]	3 (Herbicidal ratio of 40% or more and less than 70%)	4 (Herbicidal ratio of 70% or more and less than 90%)	3 (Herbicidal ratio of 40% or more and less than 70%)	5 (Herbicidal ratio of 90% or more (almost completely withered))	2 (Herbicidal ratio of 20% or more and less than 40%)	3 (Herbicidal ratio of 40% or more and less than 70%)	3 (Herbicidal ratio of 40% or more and less than 70%)	5 (Herbicidal ratio of 90% or more (almost completely withered))	4 (Herbicidal ratio of 70% or more and less than 90%)	–	–	–	–	–	–
Cc1nnc(NC(=O)c2ccc(C(F)(F)C(F)(F)F)n3c(C(C)C)nnc23)o1 [1-066]	2 (Herbicidal ratio of 20% or more and less than 40%)	2 (Herbicidal ratio of 20% or more and less than 40%)	3 (Herbicidal ratio of 40% or more and less than 70%)	–	–	–	–	–	–	3 (Herbicidal ratio of 40% or more and less than 70%)	0 (Herbicidal ratio of 5% or less (almost no effect))	0 (Herbicidal ratio of 5% or less (almost no effect))	0 (Herbicidal ratio of 5% or less (almost no effect))	4 (Herbicidal ratio of 70% or more and less than 90%)	0 (Herbicidal ratio of 5% or less (almost no effect))
CCOCc1nnc2c(C(=O)Nc3nnc(C)o3)ccc(C(F)(F)F)n12 [1-027]	3 (Herbicidal ratio of 40% or more and less than 70%)	4 (Herbicidal ratio of 70% or more and less than 90%)	3 (Herbicidal ratio of 40% or more and less than 70%)	5 (Herbicidal ratio of 90% or more (almost completely withered))	1 (Herbicidal ratio of 5% or more and less than 20%)	0 (Herbicidal ratio of 5% or less (almost no effect))	2 (Herbicidal ratio of 20% or more and less than 40%)	5 (Herbicidal ratio of 90% or more (almost completely withered))	4 (Herbicidal ratio of 70% or more and less than 90%)	–	–	–	–	–	–
Cc1ccc(-c2nnc3c(C(=O)Nc4nnc(C)o4)ccc(C(F)(F)F)n23)cc1 [1-043]	3 (Herbicidal ratio of 40% or more and less than 70%)	3 (Herbicidal ratio of 40% or more and less than 70%)	3 (Herbicidal ratio of 40% or more and less than 70%)	2 (Herbicidal ratio of 20% or more and less than 40%)	2 (Herbicidal ratio of 20% or more and less than 40%)	4 (Herbicidal ratio of 70% or more and less than 90%)	0 (Herbicidal ratio of 5% or less (almost no effect))	5 (Herbicidal ratio of 90% or more (almost completely withered))	3 (Herbicidal ratio of 40% or more and less than 70%)	–	–	–	–	–	–
